Columns and labels:
KB 3-1 [1] = test: Cytotoxicity was evaluated against KB-3-1 cells at 10 ug/mL; type: functional; details: Homo sapiens
KB 3-1 [2] = test: Cytotoxicity was evaluated against KB-3-1 cells at 3 ug/mL; type: functional; details: Homo sapiens
KB-C2 [3] = test: The compound was evaluated to Inhibit the growth of KB-C2 cells at 1 ug/mL n the presence of colchicine (0.1 ug/ML)
KB-C2 [4] = test: The compound was evaluated to Inhibit the growth of KB-C2 cells at 3 ug/mL n the presence of colchicine (0.1 ug/ML)
KB-C2 [5] = test: The compound was evaluated to Inhibit the growth of KB-C2 cells at 10 ug/mL in the presence of colchicine (0.1 ug/ML)
KB-CV60 [6] = test: The compound was evaluated to Inhibit the growth of KB CV-60 cells at 1 ug/mL in the presence of vincristine (0.1 ug/ML)
KB-CV60 [7] = test: The compound was evaluated to Inhibit the growth of KB CV-60 cells at 3 ug/mL in the presence of vincristine (0.1 ug/ML)
KB-CV60 [8] = test: The compound was evaluated to Inhibit the growth of KB CV-60 cells at 10 ug/mL in the presence of vincristine (0.1 ug/ML)
KB 3-1 [9] = test: Cytotoxicity was evaluated against KB CV-60 cells at 0.1 ug/mL; No cytotoxicity; type: functional, cell-based; details: Homo sapiens
KB 3-1 [10] = test: Cytotoxicity was evaluated against KB-C2 cells at 0.1 ug/mL; No cytotoxicity; type: functional, cell-based; details: Homo sapiens

SMILES	inhibition at 10 µg/mL (KB 3-1 [1]) [%]	inhibition at 3 µg/mL (KB 3-1 [2]) [%]	Inhibition (KB-C2 [3]) [%]	Inhibition (KB-C2 [4]) [%]	Inhibition (KB-C2 [5]) [%]	Inhibition (KB-CV60 [6]) [%]	Inhibition (KB-CV60 [7]) [%]	Inhibition (KB-CV60 [8]) [%]	Cytotoxicity (KB 3-1 [9])	Cytotoxicity (KB 3-1 [10])
CC(=O)O[C@H]1CC[C@@]2(C)[C@H](C1)[C@@H](OC(C)=O)C=C1[C@@H]2[C@H](O)C[C@]2(C)[C@@H]([C@H](C)CCCC(C)C)CC[C@@H]12	39	5	37	69	88	15	25	42		
CC(=O)O[C@H]1CC[C@@]2(C)[C@H](C1)[C@@H](OC(C)=O)C=C1[C@@H]2[C@H](O)C[C@]2(C)[C@@H]([C@H](C)[C@H](O)CCC(C)C)CC[C@@H]12	19	13	44	76	87	59	64	69		
COc1cc2c(c(OC)c1OC)-c1ccc(OC)c(=O)cc1[C@@H](NC(C)=O)CC2									No cytotoxicity	No cytotoxicity
CC(=O)O[C@@H]1[C@@H]2[C@@H](OC(C)=O)C=C3[C@H]([C@H](O)C[C@]4(C)[C@@H]([C@H](C)[C@H](O)CCC(C)C)CC[C@@H]34)[C@@]2(C)CC[C@@H]1OC(C)=O [AGOSTEROL A]	13		75	82	84	66	73	76		
CC[C@]1(O)C[C@H]2CN(CCc3c([nH]c4ccccc34)[C@@](C(=O)OC)(c3cc4c(cc3OC)N(C=O)[C@H]3[C@@](O)(C(=O)OC)[C@H](OC(C)=O)[C@]5(CC)C=CCN6CC[C@]43[C@@H]65)C2)C1									No cytotoxicity	No cytotoxicity
